Reference: patent US7452902B2, “Imidazopyridines as cyclin dependent kinase inhibitors” (Schering Corporation, priority 2002, dated 2008)

Target: T1, Cyclin E/CDK2 (Homo sapiens, UniProt P24941)
T1 construct: The expressed protein was approximately 34 kDa in size; made in house; host or cells: SF9 insect cells (baculovirus, pVL1393)
Test: Cyclin E/CDK2 in vitro kinase assay (SPA, 33P-ATP, biotinylated Histone H1 peptide)
Format: biochemical
Conditions: recombinant cyclin E/CDK2 from SF9 cells; 1 hour at room temperature; 8 point serial dilutions in duplicate

SMILES	IC50 [nM]
Brc1cnc2c(NCc3cncnc3)cc(-c3ccccc3)cn12	120
Nc1ncc(CNc2cc(-c3ccccc3Cl)cn3c(Br)cnc23)cn1	76
Clc1ccccc1-c1cc(NCc2cncnc2)c2ncc(Br)n2c1	36
